One test deals with superoxide. The test is described as follows: Extracellular superoxide production by differentiated HL-60 cells (cytochrome C reduction). Format: cell-based, human. To be noted: for extracellular superoxide production, % change compared with vehicle control: HL-60, PMA; for inhibition of superoxide production: Cpd. 16 at 100 μM. The method, then: The human promyeloblast cell line HL-60 can be differentiated into neutrophil-like cells, which then produce ROS when activated. HL-60 cells were grown in RPMI-1640 medium containing glutamine and supplemented with FBS 20%. They were differentiated by culturing for 6 days in medium containing DMSO 1.25%, after which they were washed, centrifuged and incubated at 37° C. for 5 minutes with cytochalasin before transfer to PBS containing cytochrome C and test compound. After a 5 minute incubation, phorbol myristate acetate (PMA) was added to activate the HL-60 cells, which were then incubated for a further 10 minutes. The cells were then pelleted by centrifugation, and the change in absorbance due to reduction of cytochrome C in the cell-free supernatant was measured at 550 nm. The increase in absorbance is a direct measure of extracellular superoxide production by the cells, and a reduction in those samples incubated with test compounds would indicate anti-oxidant activity. Samples were examined in duplicate, and the assay done three times.

Test [1] relates to BALB/c mice (PMA-induced ear swelling). Kind of test: Murine ear inflammation assay, PMA-induced ear swelling. Format: in vivo, mouse. The settings on record: 25 mg/kg i/p; for % Change compared with vehicle / Change in ear thickness (mean ± SD, ×0.01 mm): PMA, 5 hr post-PMA. On the procedure:
(§1) Female BALB/c mice (ARC, WA, Australia), weighing 15-21 g, and maintained on an isoflavone-free diet (Gordon's Specialty Stock Foods, Yanderra, NSW) for at least seven days, were randomised into test groups of five or six. To reduce animal use, mice had ear swelling induced by applying AA (Sigma, Steinheim, Germany) initially, and then by phorbol 12-Myristate 13-acetate (PMA—Sigma, Mo., USA) one week later.
(§2) Test compounds were dissolved in polyethylene glycol (PEG) 400 (Sigma, St. Louis, Mo., USA):phosphate buffered saline 1:1 and injected intraperitoneally (i/p) at a dose of 25 mg/kg either 30 min prior to AA treatment or 1 hr prior to PMA treatment. Mice were anaesthetised using isoflurane (Veterinary Companies of Australia Pty Ltd, NSW, Australia) and baseline thickness of both ears was measured using a spring micrometer (Interapid, Zurich, Switzerland). Each mouse received a total of 20 μL of either AA in ethanol (50 mg/ml) or PMA in acetone (0.2 mg/ml) applied to the inner and outer surfaces of each pinna (i.e. 5 μL per ear surface). Mice were anaesthetised again to remeasure the ears at 1 hr post-AA application or at 5 hr post-PMA application.
(§3) The difference in ear swelling pre- and post-application of inflammogen for each ear was calculated. The difference in mean swelling of each test group compared to the group given vehicle alone was calculated using a two-tailed unpaired t-test (Prism 4, Graphpad Software).

Test [2] in a line: DPPH free radical scavenging. To be noted: DPPH 0.1 mM, 20 minutes; read-out: Free radical scavenging ability EC50. On the procedure: The antioxidant (free radical trapping) activity of test compounds was assessed using the stable free radical compound 2,2-diphenyl-1-picrylhydrazyl (DPPH). A stock solution of DPPH was prepared at a concentration of 0.1 mM in ethanol and mixed for 10 minutes prior to use. Test compounds at a concentration of 100 μM were reacted with DPPH for 20 minutes, after which time the absorbance at 517 nm was determined and the change in absorbance compared to a reagent blank (DPPH with ethanol alone). A dose response curve was produced for those compounds with free radical scavenging activity (ΔAbs>0.3) at 100 μM. The IC50 value was estimated as the concentration of test compound that caused a 0.6 change in absorbance (with 1.2 absorbance units representing total scavenging of the DPPH radical).

The test system of a further test is red blood cells. The test is described as follows: Peroxyl radical (AAPH)-induced red blood cell lysis. The settings on record: 10 μM; AAPH-induced RBC lysis; vehicle 40.0. Type of test: cell-based. The method, then: Freshly collected heparinised venous blood (10 ml, on ice) was aliquotted into 1.8 ml sterile eppendorf tubes and centrifuged for 10 minutes at 2600 rpm at 4° C. Plasma and buffy coat layers were removed (approximately 900 μl) and packed red blood cells (RBC) were then washed by the addition of 900 μl of sterile, ice cold PBS. This washing procedure was repeated twice. Packed RBC were resuspended by the addition of 900 μl of ice-cold, sterile PBS (and termed RBC stock). RBC stocks were stored at 4° C. for a maximum of three days. All working suspensions of RBC were prepared fresh daily by diluting 200 μl of RBC stock into 10 ml of ice-cold, sterile PBS and 50 μl added to each well.
The free radical generator AAPH (1.22 gm) was dissolved in 7.5 ml of PBS to yield a 4× stock at 600 mM and 50 μl aliquots (final concentration of 150 mM) were then added to each well to initiate the lysis assay. Test compounds were examined at […] (in DMSO 0.25%). Appropriate controls were included in each experiment. Peroxyl-induced RBC lysis assays were performed in 96-flat bottom well microtitre plates with a total volume of 200 μl per well. Turbidity of RBC suspensions were monitored using a Tecan microplate reader at 690 nm (37° C.) with gentle vortexing. Assays were performed in quadruplicate and readings were taken every 5 minutes over 5 hours. RBC lysis curves were constructed by plotting absorbance (mean of 4 readings) against time. Time to half-lysis was calculated by taking the highest absorbance reading (no lysis) and the lowest absorbance reading (maximum lysis). The sum of these two readings divided by two gave the absorbance at half-lysis. Simple regression analysis was used to calculate the time at which half-lysis absorbance occurred.

Another test concerns HUVSMC. The test is described as follows: Proliferation of human umbilical vein smooth muscle cells. Type of test: cell-based. To be noted: VSMC, 120 h, 5 days. The method, then: Human umbilical vein smooth muscle cells (HUVSMC), tissue explants from a neonate (HRI— passage 2), were seeded into 96 well plates at 1×10^3 cells per well, and allowed to attach for 24 hours. They were then washed twice and incubated in medium without FBS for 24-48 hours to serum-starve them. Test compounds were prepared in medium without FBS and added to the plates and incubated for one hour. Medium with FBS was added to give a final concentration of 10% and the plates incubated for 5 days until the controls were just confluent. Final analogue concentration was therefore either a series from 150 μM to 1.2 μM, or single concentrations of 10 μM. The difference in absorbance between treated cells and untreated cells was calculated using the formula, test/control*100, to obtain the percentage change caused by the test compound. As well, an IC50 for each compound was calculated.

Test [3] deals with BALB/c mice (AA-induced ear swelling). The test is described as follows: Murine ear inflammation assay, AA-induced ear swelling. Format: in vivo, mouse. To be noted: 25 mg/kg i/p; for % Change compared with vehicle / Change in ear thickness (mean ± SD, ×0.01 mm): AA, 1 hr post-AA. The method, then:
as §1, §2, §3

The test system of another test is TNFα. Kind of test: LPS-induced TNFα synthesis in RAW 264.7 murine macrophages. Type of test: cell-based, mouse. The settings on record: 10 μM; RAW 264.7, LPS. On the procedure: Subconfluent RAW 264.7 cells were seeded into 24-well plates at 5×10^5 cells per well and allowed to adhere for 1 hr. Cells were then treated either test compound (in 0.025% DMSO) or vehicle alone, and incubated for 1 hr. LPS 50 ng/ml (LPS—Sigma-Aldrich) was then added. After incubation for 16 hrs, culture media was collected and stored at −80° C. TNFα measurement using an ELISA (Becton Dickinson).

The results in this text go back to patent US20090233999A1, “COMPOSITIONS AND THERAPEUTIC METHODS INVOLVING ISOFLAVONES AND ANALOGUES THEREOF” (NOVOGEN RESEARCH PTY LTD, priority 1999, published 2009).

Marks after values point to notes of the source that are not given here.

What is called EC50 is the concentration giving half of the maximal effect. The IC50 is the concentration that gives 50% inhibition. Lower therefore signals inhibition by little substance. For `COc1cccc(C2=Cc3ccc(O)cc3OC2)c1` [Cpd. 16, 7-Hydroxy-3′-methoxyisoflav-3-ene], the “extracellular superoxide production, % change compared with vehicle control” value in the test on superoxide (10 μM) is −22%. Also, the “extracellular superoxide production, % change compared with vehicle control” value with superoxide (100 μM) is −57* %. In addition, the “inhibition of superoxide production” value with superoxide is on record as “significantly inhibited”. For the same molecule, in test [1], the “% Change compared with vehicle” value is on record as −11% and the “Change in ear thickness (mean ± SD, ×0.01 mm)” value (from here on “Change … (mean ± SD, ×0.01 mm)”) worked out at 23.3 ± 4.5 ×0.01 mm. In addition, the 50% effective concentration (EC50) in test [2] is 45 µM. Further, the “Time taken to reach half-lysis” value in the test on red blood cells is recorded as 164.3 min. This molecule yielded an IC50 in the test on HUVSMC of 63 µM. For the same molecule, in test [3], the “ear oedema caused by the application of AA” value (“ear oedema caused” for short) is listed as “significant reduction”; the “% Change compared with vehicle” value was −29%; the “Change … (mean ± SD, ×0.01 mm)” value is recorded as 11.6 ± 2.9 ×0.01 mm. Further, the “synthesis of TNFα” value with TNFα is on record as “tended to do so”.

With `Cc1c(O)ccc2c1OCC(c1cccc(O)c1)=C2` [Cpd. 14, 3′,7-Dihydroxy-8-methylisoflav-3-ene], the “extracellular superoxide production, % change compared with vehicle control” value with superoxide (10 μM) and in the test with superoxide (100 μM) was −20% throughout. The “inhibition of superoxide production” value in the test with superoxide is listed as “trend towards inhibition”. The “% Change compared with vehicle” value is “+7%” in test [1] and −34% in test [3]. In addition, the “Change … (mean ± SD, ×0.01 mm)” value was 27.9 ± 3.8 ×0.01 mm in test [1] and 10.7 ± 2.9 ×0.01 mm in test [3]. The EC50 in test [2] was found to be 47 µM. The “Time taken to reach half-lysis” value with red blood cells amounted to 134.7 min. Besides, in the test with HUVSMC, the midpoint of inhibition, the IC50, lay at 64 µM. Besides, the “ear oedema caused” value in test [3] is “significant reduction”. In the test with TNFα, the “synthesis of TNFα” value is given as “tended to do so”.

As to `Oc1ccc2c(c1)OCC(c1ccc(Br)cc1)=C2` [Cpd. 21, 4′-Bromo-7-hydroxyisoflav-3-ene], the “extracellular superoxide production, % change compared with vehicle control” value in the test on superoxide (10 μM) is on record as −10%; in the test on superoxide (100 μM), −11%. Further, the “inhibition of superoxide production” value in the test on superoxide is “trend towards inhibition”. The “% Change compared with vehicle” value in test [1] is on record as “+24%”; in test [3], −11%. Also, the “Change … (mean ± SD, ×0.01 mm)” value in test [1] is reported as 27.2 ± 8.6 ×0.01 mm; in test [3], 14.4 ± 5.1 ×0.01 mm. Also, the concentration giving a half-maximal response (EC50) in test [2] was 43 µM. In addition, in the test with red blood cells, the “Time taken to reach half-lysis” value worked out at 140.8 min. The same molecule gave an IC50 with HUVSMC of 8 µM. The “synthesis of TNFα” value in the test with TNFα was “inhibited”.

For `COc1ccc(C2=Cc3ccc(O)cc3OC2)cc1OC` [Cpd. 18, 7-Hydroxy-3′,4′-dimethoxyisoflav-3-ene], the “extracellular superoxide production, % change compared with vehicle control” value in the test with superoxide (10 μM) is listed as −24%. In addition, the “extracellular superoxide production, % change compared with vehicle control” value in the test with superoxide (100 μM) is reported as −36* %. In test [1], the “% Change compared with vehicle” value was −1% and the “Change … (mean ± SD, ×0.01 mm)” value was found to be 29.6 ± 2.7 ×0.01 mm. Moreover, the EC50 in test [2] worked out at 48 µM. In addition, the “Time taken to reach half-lysis” value in the test on red blood cells is recorded as 107.7 min. The IC50 in the test on HUVSMC was 140 µM. In test [3], the “ear oedema caused” value was “significant reduction”; the “% Change compared with vehicle” value was −40%; the “Change … (mean ± SD, ×0.01 mm)” value came to 8.4 ± 3.7 ×0.01 mm. The “synthesis of TNFα” value in the test with TNFα is given as “inhibited”.

Take `COc1ccc(C2=Cc3ccc(O)c(C)c3OC2)cc1OC` [Cpd. 19, 7-Hydroxy-3′,4′-dimethoxy-8-methylisoflav-3-ene]: the “extracellular superoxide production, % change compared with vehicle control” value in the test on superoxide (10 μM) is recorded as −11%. Moreover, in the test with superoxide (100 μM), the “extracellular superoxide production, % change compared with vehicle control” value was 16%. The “inhibition of superoxide production” value with superoxide is given as “trend towards inhibition”. Moreover, in test [1], the “inflammation caused by the application of PMA” value was “significantly inhibited”; the “% Change compared with vehicle” value is on record as −26%; the “Change … (mean ± SD, ×0.01 mm)” value is recorded as 22.1 ± 3.9 ×0.01 mm. Also, the EC50 in test [2] stood at 74 µM. The “Time taken to reach half-lysis” value with red blood cells was 111.6 min. In addition, in the test with HUVSMC, the IC50 worked out at 34 µM. Also, in test [3], the “ear oedema caused” value was “significant reduction”; the “% Change compared with vehicle” value is −34%; the “Change … (mean ± SD, ×0.01 mm)” value stood at 9.3 ± 3.9 ×0.01 mm. Further, in the test on TNFα, the “synthesis of TNFα” value is given as “inhibited”.

With `Oc1ccc(C2=Cc3ccc(O)c(Br)c3OC2)cc1` [Cpd. 20, 4′,7-Dihydroxy-8-bromoisoflav-3-ene], the entries for the “extracellular superoxide production, % change compared with vehicle control” value with superoxide (10 μM) and in the test on superoxide (100 μM) were 6% and 28%, respectively. The “inhibition of superoxide production” value in the test on superoxide is “not active”. Moreover, the “% Change compared with vehicle” value in test [1] is reported as “+4%”; in test [3] it was −11%. Besides, the “Change … (mean ± SD, ×0.01 mm)” value in test [1] is on record as 22.7 ± 4.7 ×0.01 mm; in test [3] it was 14.4 ± 6.1 ×0.01 mm. The EC50 in test [2] turned out to be 24 µM. Further, in the test on red blood cells, the “Time taken to reach half-lysis” value came out at 122.0 min. Also, it took 32 µM to reach half-maximal inhibition in the test with HUVSMC (IC50). Further, the “synthesis of TNFα” value in the test on TNFα is listed as “tended to do so”.
